The values below come from US6462086B1, “Non-malignant disease treatment with Ras antagonists” (Ramot University Authority for Applied Research and …, priority 1999, dated 2002).

For data set [1], the system named is lymphocytes from naive SJL mice. In words: ConA- and LPS-induced proliferation of lymphocytes from naive SJL mice in vitro (3H-thymidine). It is filed as cell-based. Particulars: Mus musculus, Lymphocyte, 48 h stimulation.
For data set [2], the system named is lymphocyte surface markers (CD3, CD4, CD8, IA-k, Vb17, CD62L). In words: FACS analysis of surface markers on lymph node lymphocytes of EAE mice. It is filed as in vivo, mouse. Particulars: percentages of positively stained cells among 10,000; EAE mice + FTS, day 10. Here is the method:
Single cell suspensions were prepared from the draining lymph nodes of mice in which EAE was induced, on day 10 post immunization for EAE-induction. Cells were incubated on ice, for 30 min with 20 μl of the monoclonal FITC-conjugated anti-CD62L, anti-IA-k ([…]) and anti-Vb17 antibodies (Becton and Dickinson, USA). The proportions of cells expressing these surface markers were examined by a fluoresecence activated cell sorter (FACS), and were calculated as the percentages of positively stained cells among 10,000 cells enumerated.

The subject of data set [3] is spleen lymphocytes of MRL/lpr and MRL/++ mice. In words: MRL/lpr and MRL/++ mouse spleen lymphocyte proliferation ex vivo. It is filed as in vivo. The note with it: for response to ConA (stimulation index): 5 mg/Kg FTS for 3 months. As for the experimental part: Mice were killed by cervical dislocation and spleens removed with sterile precautions and placed in disposable plastic Petri dishes containing Dulbecco's phosphate-buffered saline (DPBS). Single cell suspensions were obtained by expressing DPBS through the spleen using a syringe and 19 gauge needle. The cells were suspended in DPBS and centrifuged at 1100 rpm for 7 minutes. Erythrocytes were lysed by a 7-minute incubation in 0.83% (weight/volume) ammonium chloride, and cells were immediately washed three times with DPBS. Spleen cells were suspended to a concentration of 3×10^6 cells/ml in RPMI-1640 medium containing 5% fetal calf serum (FCS), 100 units/ml penicillin, 100 μg/ml streptomycin, 2 mM L-glutamine, 0.1 mM non-essential amino acids, 1 mM sodium pyruvate, and 50 μM 2-mercaptoethanol. Cells were cultured at a concentration of 6×10^5 cells/200 μl culture medium/well in 96-well, flat-bottomed, microculture plates, and were incubated for 72 hours in a humidified atmosphere of 95% air and 5% CO2 at 37° C. At the end of this time, 1 μCi tritiated thymidine (3H-TdR) was added to each well in a 10 μl volume and the cultures were further incubated for 18 hours. Cells from each microculture were harvested on fibroglass filters with multiharvester and counted in liquid scintillation β counter.
Mitogens and antigens were diluted to appropriate concentrations in the incubation medium and added to the wells at the beginning of incubation period to give a final concentration of 1.0 μg/ml lipopolysaccharide (LPS), 1.0 μg/ml Concanavalin A (ConA) or 10 μg/ml beta2-Glycoprotein I (beta2-GPI). Spontaneous proliferation (without mitogen or antigen) was also assessed.
To determine the effect of FTS on the MRL/lpr and MRL/++ mouse splenocyte proliferation ex vivo, spleen cells suspensions were prepared from three individual spleens per group, and were separately analyzed in culture (in triplicate). Splenocyte proliferation was evaluated in the presence of LPS, ConA or β2-GPI.
The results are expressed as the mean value of stimulation index per group. The stimulation index was calculated as follows: the mean dpm of cells cultured in the presence of mitogen/antigen divided by the mean dpm of cells cultured in the absence of mitogen/antigen.
The effect of FTS on lymphocyte proliferation in vivo in MRL/lpr and control MRL/++ mice was determined by ex-vivo experiments. The mice received 5 mg/Kg FTS (5 days a week) for 3 months and spleen lymphocyte proliferation assays were then performed in vitro with no added FTS. Baseline 3H-TdR incorporation was similar in all four groups examined except for a trend towards higher values in the MRL/++ mice treated with FTS. […] As described previously (18, 19), the response of the MRL/lpr mice to ConA was markedly lower than in the MRL/++ control mice. […] An antigen-specific proliferative response to β2-GPI was measured and a significant 50% reduction in the response of lymphocytes of FTS-treated mice was measured in both MRL/lpr and MRL/++ mice.

The test system of a further data set is MRL/lpr mice. In words: Autoantibody levels in MRL mice after 2 months FTS (Example 4, ELISA). In kind it is in vivo, mouse. The note with it: FTS 5 mg/kg 5 days per week. Here is the method:
Two models of the antiphospholipid syndrome were compared. The MRL/lpr mouse, which is a […] model due to a mutaion in the Fas gene, and Balb-C mice immunized with ApoH (β2 glucoprotein 1), which is an induced model. The effect of 2 months FTS (5 days per week, 5 mg/kg) treatment on autoantibody levels in MRL mice (age 10 weeks to 18 weeks) is presented in FIG. 14. The levels of autoantibodies were measured at age 18 weeks by routine ELISA assays (repeated measures ANOVA, p=0.016). […] Anti-ApoH and anti-dsDNA were the major autoantibody groups found. Significant, but lower levels of autoantibodies to phospholipids and single stranded DNA were found in the MRL/lpr mice compared to the MLR/++ controls.
(In general: An ELISA detects its analyte on a solid surface through an enzyme-linked reagent.)

Data set [4] deals with TAA-induced liver cirrhosis in Wistar rats. In words: Thioacetamide (TAA)-induced liver cirrhosis in rats, liver histopathology. It is filed as in vivo, rat. Here is the method:
Liver cirrhosis was induced in rats by intraperitoneal (i.p.) administration of TAA 200 mg/kg twice weekly for 12 weeks, as previously described (1, 2).
The FTS was dissolved in PBS and administered i.p. 3 times a week to rats according to their assigned groups. Four groups containing 6 rats each were treated as follows. One group received TAA 200 mg/kg i.p. twice a week and i.p. injections of PBS 3 days a week for 12 weeks (cirrhotic controls for the FTS-treated groups). A second group received TAA for 12 weeks and FTS 5 mg/kg, 3 times a week. […] The two control groups consisted of one that received PBS injections without TAA for 12 weeks (normal controls) and a group of 5 rats that received only FTS 5 mg/kg i.p. for 12 weeks to monitor the appearance of adverse effects.
The rats were sacrificed at the completion of the treatment protocols. Their livers were removed and midsections of the left lobes of the livers were processed for light microscopy. This processing consisted of fixing the specimens in a 5% neutral formol solution, embedding the specimens in paraffin, making sections of 5 μm thickness, and staining the sections with hematoxylin and eosin. Reticulin stain was performed to enhance the visualization of the extent and distribution of liver fibrosis. The tissue slices were scanned and scored by two expert pathologists who were not aware of the sample source. The degree of inflammation and fibrosis was expressed as the mean of 10 different fields in each slide that had been classified on a scale of 0-3 according to Muller, et al(3).

[5] abbreviates: MRL/lpr mice, age 10 to 18 weeks.
[6] abbreviates: FTS 5 mg/kg alone, 12 weeks, no TAA.
Where [7] appears, read: TAA + FTS 5 mg/kg 3 times/week for 12 weeks.

Each structure is given as a SMILES string.

Broadly, the inhibition is the relative decrease from the control value, in per cent. Low readings indicate little suppression, high ones strong suppression. `CC(C)=CCC/C(C)=C/CC/C(C)=C/CSc1ccccc1C(=O)O` [FTS, farnesyl thiosalicylic acid]: the inhibition at 12.5 µM in data set [1] (12.5 μM FTS) was in the range of 22 to 50%. The compound further came in with an inhibition at 25 µM in data set [1] (25 μM FTS) of 66 to 71%. In data set [1] (50 μM FTS), this compound had an inhibition at 50 µM of 95 to 98%. In addition, in data set [2], the “proportion of lymphocytes expressing CD3” value worked out at 94.2 ± 2.7, the “proportion of lymphocytes expressing CD4” value is recorded as 51.6 ± 1.9, the “proportion of lymphocytes expressing CD8” value is 26.2 ± 9.2 and the “proportion of lymphocytes expressing CD62L” value was 67.1 ± 7.3. Also, in data set [2], the “proportion of lymphocytes expressing IA-k” value was found to be 28.3 ± 3.2 and the “proportion of lymphocytes expressing Vb17” value is listed as 11.3 ± 2.1. In addition, the “reduction of the response to LPS (stimulation index)” value in data set [3] (5 mg/Kg FTS 5 days a week for 3 months) is “two-fold reduction”. For the same compound, the “decrease in splenocyte proliferation to ConA, LPS and β2-GPI” value in data set [3] (FTS 5 mg/Kg/day) is listed as 50%. Further, the “response to ConA (stimulation index)” value in data set [3] (MRL/++ mice) is given as “not in lymphocytes of the FTS-treated MRL/++”. The “response to ConA (stimulation index)” value in data set [3] (MRL/lpr mice) was “further reduced”. Moreover, the “reduction in the proliferative response to β2-GPI” value in data set [3] (both MRL/lpr and MRL/++ mice) was determined as 50%. Moreover, the “levels of autoantibodies to phospholipids and single stranded DNA (minor antibodies)” value in the data set with MRL/lpr mice is given as “did not lower significantly”. Also, in the data set with MRL/lpr mice (setting [5]), the “levels of anti-ApoH autoantibodies” value is on record as “Significantly lower levels” and the “levels of anti-double stranded DNA (dsDNA) autoantibodies” value is “Significantly lower levels”. Besides, in data set [4] (setting [6]), the “Fibrotic septa (0-3)” value came out at 0 and the “Nodule formation (0-3)” value is reported as 0. In data set [4] (setting [7]), the “Fibrotic septa (0-3)” value is on record as 0.9±0.5 and the “Nodule formation (0-3)” value was found to be 0.7 ± 0.6.
